The values that follow come from US7955425B2, “Ink composition for ink jet recording” (Seiko Epson Corporation, priority 2008, dated 2011).

The nature of series [1]: Evaluation of solubility of poorly water-soluble alkane diol. The format is physicochemical. The settings on record: for Ability to dissolve 1,2-octanediol: two-component aqueous alcohol solution with 10% by weight 1,2-octanediol and 10% by weight 1,2-hexanediol, FIG. 1. As for the experimental part:
An aqueous solution containing 10% by weight of 1,2-octanediol was prepared using 1,2-octanediol as a poorly water-soluble alkane diol.
Five alcohol solvents, 1,6-hexanediol (hereinafter referred to as 1,6-HED), 3-methyl-1,5-pentanediol (hereinafter referred to as 3 MPED), 1,5-pentanediol (hereinafter referred to as 1,5-PED), 1,2-hexanediol (hereinafter referred to as HED), and 2,2′-dimethylpropanediol (hereinafter referred to as 2 MPRD) were added to 10 g of the aqueous solution until the aqueous solution became transparent.
In place of the aqueous solution described above, an aqueous solution that contains 10% by weight of 1,2-octanediol as the poorly water-soluble alkane diol and 10% by weight of 1,2-hexanediol as the water-soluble 1,2-alkane diol was prepared, and the alcohol solvents were added to the aqueous solution until the aqueous solution became transparent, as described above.

Series [2] can be described thus: Surface tension of aqueous solution. In kind it is physicochemical.

On to `CC(CCO)CCO` [3 MPED, 3-methyl-1,5-pentanediol], for which the “Ability to dissolve 1,2-octanediol” value in series [1] is reported as “higher ability to dissolve 1,2-octanediol than the addition of HED alone”.
`CC(C)(C)C(O)CO` (stereo not shown) [3,3-dimethyl-1,2-butanediol]: the surface tension (commonly the force per length acting along the surface) in series [2] (15% aqueous solution) is reported as 26.1 mN/m.
On the same count and under the same terms, the same measure for `CC(C)CC(O)CO` (stereo not shown) [4-methyl 1,2-pentanediol]: 25.4 mN/m.
In turn, `CC(CCO)CCO` [3-methyl-1,5-butanediol] gave a surface tension in series [2] (10% aqueous solution) of 45.8 mN/m.
Turning to `CCCCCCC(O)CO` (stereo not shown) [1,2-octanediol], the “Solubility of 1,2-octanediol in water” value in series [1] (aqueous solution containing 10% by weight of 1,2-octanediol) is listed as “incompletely dissolved”.
Turning to `OCCCCCO` [1,5-PED, 1,5-pentanediol], in series [1], the “Ability to dissolve 1,2-octanediol” value is recorded as “higher ability to dissolve 1,2-octanediol than the addition of HED alone”.
Same read-out and setting: the result for `OCCCCCCO` [1,6-HED, 1,6-hexanediol] reads “higher ability to dissolve 1,2-octanediol than the addition of HED alone”; that for `CC(C)(CO)CO` [2 MPRD, 2,2′-dimethylpropanediol], “higher ability to dissolve 1,2-octanediol than the addition of HED alone”.
With `CC(CO)CO` [2-methyl-1,3-propanediol], in series [2] (10% aqueous solution), the surface tension is on record as 57.5 mN/m.
In series [2] (15% aqueous solution), `CCCCC(O)CO` (stereo not shown) [1,2-hexanediol] showed a surface tension of 26.7 mN/m.
